From article PMC7251097, “Aspartate/asparagine-β-hydroxylase: a high-throughput mass spectrometric assay for discovery of small molecule inhibitors” (Scientific Reports, 2020)
Where a name gives a salt, the structure may show the parent alone.

What follows are molecules tested against T1, His6-AspH315–758 (human aspartate/asparagine-β-hydroxylase, AspH) (Homo sapiens, UniProt Q12797) (assay: SPE-MS AspH inhibition assay (LOPAC screen at fixed 20 μM and IC50 dose-response), hydroxylation of cyclic peptide hFX-CP101–119). Details: not given.
T1 construct: N-Terminally His6-tagged human AspH315–758 (His6-AspH315–758) was produced in E. coli BL21 (DE3) cells; made in house; host or cells: E. coli BL21 (DE3), pET-28a(+) vector
T1 sequence (Q12797 315-758): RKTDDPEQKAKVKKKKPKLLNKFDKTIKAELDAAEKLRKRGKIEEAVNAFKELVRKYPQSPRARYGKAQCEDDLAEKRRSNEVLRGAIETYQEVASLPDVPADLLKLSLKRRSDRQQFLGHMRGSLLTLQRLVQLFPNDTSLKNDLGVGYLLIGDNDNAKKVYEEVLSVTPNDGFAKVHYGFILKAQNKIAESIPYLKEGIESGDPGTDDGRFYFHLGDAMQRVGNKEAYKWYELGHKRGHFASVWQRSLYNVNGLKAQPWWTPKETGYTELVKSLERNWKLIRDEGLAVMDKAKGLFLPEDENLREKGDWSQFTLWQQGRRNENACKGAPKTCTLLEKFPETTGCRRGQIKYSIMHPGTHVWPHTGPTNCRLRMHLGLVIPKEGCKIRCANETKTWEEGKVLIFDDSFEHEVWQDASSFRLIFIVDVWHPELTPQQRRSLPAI
Format: biochemical
For `COc1ccc(CCN(C)CCCC(C#N)(c2ccc(OC)c(OC)c2)C(C)C)cc1OC.Cl` (racemic) [(±)-Verapamil hydrochloride], the “% conversion” value was 42.64%.
For `Cl.OC1CCCCC1N1CCC(c2ccccc2)CC1` (racemic) [(±)-Vesamicol hydrochloride], the “% conversion” value was 40.91%.
For `O=C(O)[C@H]1CCCN[C@H]1C(=O)O` (racemic) [(±)-cis-Piperidine-2,3-dicarboxylic acid], the “% conversion” value was 39.41%.
For `CCC1(c2ccc(N)cc2)CCC(=O)NC1=O` (racemic) [(±)-p-Aminoglutethimide], the “Plate 1 (% conversion)” value was 34.85% and the “Plate 1 (% inhibition)” value was 3.03%.
`CCCCS(=N)(=O)CCC(N)C(=O)O` (racemic) [DL-Buthionine-[S,R]-sulfoximine] was tested, and the “Plate 1 (% conversion)” value was 34.26% and the “Plate 1 (% inhibition)” value was 4.80%.
In the case of `O=C(O)CNC(=O)C(CS)Cc1ccccc1` (racemic) [DL-Thiorphan], the “% conversion” value is reported as 36.55% and the inhibition at 20 µM is reported as -0.22%.
For `CC(N)(Cc1ccc(O)cc1)C(=O)O` (racemic) [DL-alpha-Methyl-p-tyrosine], the “Plate 1 (% conversion)” value was 33.46% and the “Plate 1 (% inhibition)” value was 7.19%.
With `COc1ccc2c(c1OC)C(=O)OC2C1c2cc3c(cc2CCN1C)OCO3` (single isomer, unassigned; (+)) [(+)-Hydrastine] the “Plate 2 (% conversion)” value was 38.28%.
`CC(N)Cc1cccc(C(F)(F)F)c1.Cl` (single isomer, unassigned; (+)) [(+)-Norfenfluramine hydrochloride] was tested, and the “% conversion” value was 26.61%.
With `C[N+]1(C)[C@@H]2CC(OC(=O)[C@H](CO)c3ccccc3)C[C@H]1[C@@H]1O[C@@H]12.O=[N+]([O-])[O-]` (single isomer, unassigned; (-)) [(-)-Scopolamine methyl nitrate] the “% conversion” value was 25.39%.
With `CC(N)C(O)c1ccc(O)c(O)c1` (single isomer, unassigned; (-)) [(-)-alpha-Methylnorepinephrine] the “Plate 2 (% conversion)” value was 7.36%.
In the case of `O.c1cnc2c(c1)ccc1cccnc12` [1,10-Phenanthroline monohydrate, reference compound], the “% conversion” value is reported as 3.10% and the inhibition at 20 µM is reported as 97.8%.
With `Cl.c1ccc2c(N3CCNCC3)cccc2c1` [1-(1-Naphthyl)piperazine hydrochloride] the “% conversion” value was 30.74%.
For `Cl.Cl.Cn1cnc(CCN)c1` [1-Methylhistamine dihydrochloride], the “Plate 3 (% conversion)” value was 37.48%.
`Cn1ccnc1` [1-Methylimidazole] was tested, and the “Plate 3 (% conversion)” value was 20.25%.
`S=C(Nc1ccccc1)Nc1nccs1` [1-Phenyl-3-(2-thiazolyl)-2-thiourea] was tested, and the “Plate 3 (% conversion)” value was 40.98%.
For `c1ccc(-c2ccccn2)nc1` [2,2-Bipyridyl], the “Plate 2 (% conversion)” value was 27.94%.
`COC1=C(OC)C(=O)c2ccccc2C1=O` [2,3-Dimethoxy-1,4-naphthoquinone] was tested, and the “Plate 2 (% conversion)” value was 33.76%.

Same assay, conditions: 20 µM
`COc1ccc(CCN(C)CCCC(C#N)(c2ccc(OC)c(OC)c2)C(C)C)cc1OC.Cl` (racemic) [(±)-Verapamil hydrochloride] was tested, and the “% inhibition” value was -18.08%.
For `Cl.OC1CCCCC1N1CCC(c2ccccc2)CC1` (racemic) [(±)-Vesamicol hydrochloride], the “% inhibition” value was -13.00%.
For `O=C(O)[C@H]1CCCN[C@H]1C(=O)O` (racemic) [(±)-cis-Piperidine-2,3-dicarboxylic acid], the “% inhibition” value was -8.61%.
`Br.CN1[C@@H]2CC(OC(=O)[C@H](CO)c3ccccc3)C[C@H]1[C@@H]1O[C@@H]12` (single isomer, unassigned; (-)) [(-)-Scopolamine hydrobromide] was tested, and the “% inhibition” value was -9.71%.
In the case of `CC(N)C(O)c1ccc(O)c(O)c1` (single isomer, unassigned; (-)) [(-)-alpha-Methylnorepinephrine], the “Plate 2 (% inhibition)” value is reported as 85.40%.
With `c1ccc(-c2ccccn2)nc1` [2,2-Bipyridyl] the “Plate 2 (% inhibition)” value was 23.93%.
`COC1=C(OC)C(=O)c2ccccc2C1=O` [2,3-Dimethoxy-1,4-naphthoquinone] was tested, and the “Plate 2 (% inhibition)” value was 6.56%.

Same assay, conditions: LOPAC Plate 4, compound at 20 uM
For `O=C(O)CCCCC1CCSS1` (racemic) [(±)-alpha-Lipoic Acid], the “% inhibition” value was 5.35%.
`CC(C)(C)c1cc(C(C)(C)C)c2c(c1)C(O)(C(F)(F)F)C(=O)O2` (racemic) [rac BHFF] was tested, and the “% inhibition” value was 72.02%.
For `N=C(N)NC(=N)Nc1ccccc1` [1-Phenylbiguanide], the “% inhibition” value was 12.13%.

Same assay, conditions: LOPAC Plate 4, compound at 20 uM, substrate conversion
`O=C(O)CCCCC1CCSS1` (racemic) [(±)-alpha-Lipoic Acid] was tested, and the “% conversion” value was 34.64%.
For `C=CC(N)CCC(=O)O` (racemic) [(±)-gamma-Vinyl GABA], the “% conversion” value was 37.96%.
In the case of `CCN1CCC[C@H]1CNC(=O)c1c(O)c(Cl)cc(Cl)c1OC.O=C(O)C(O)C(O)C(=O)O` (racemic) [S(+)-Raclopride L-tartrate], the “% conversion” value is reported as 11.56%.
With `CN(C)C[C@H](O)Cn1c2ccc(Br)cc2c2cc(Br)ccc21` (racemic) [Wiskostatin] the “% conversion” value was 31.93%.
In the case of `CC(C)(C)c1cc(C(C)(C)C)c2c(c1)C(O)(C(F)(F)F)C(=O)O2` (racemic) [rac BHFF], the “% conversion” value is reported as 11.89%.
For `N=C(N)NC(=N)Nc1ccccc1` [1-Phenylbiguanide], the “% conversion” value was 32.33%.
For `FC(F)(F)c1ccccc1-n1ccnc1` [1-[2-(Trifluoromethyl)phenyl]imidazole], the “% conversion” value was 26.55%.

Same assay, conditions: LOPAC compound at 20uM, plate 2; conversion of substrate peptide
For `COc1cc(C(O)C(=O)O)ccc1O` (racemic) [(±)-Vanillylmandelic acid], the “Plate 2 (% conversion)” value was 32.67%.
In the case of `COC(=O)C1=C(C)NC(C)=C(C(=O)O[C@@H]2CCCN(Cc3ccccc3)C2)[C@@H]1c1cccc([N+](=O)[O-])c1.Cl` (racemic) [Benidipine hydrochloride], the “Plate 2 (% conversion)” value is reported as 31.43%.
With `CCCCCCCCCCCCCCC[C@H](O)[C@H](N)CO` (racemic) [DL-erythro-Dihydrosphingosine] the “Plate 2 (% conversion)” value was 62.82%.
In the case of `Nc1nc(Cl)nc2c1ncn2[C@@H]1O[C@H](COP(=O)(O)OP(=O)(O)OP(=O)(O)O)C(O)C1O` (stereo in doubt), the “Plate 2 (% conversion)” value is reported as 11.93%.
In the case of `CCCCC1(C2CCCC2)Cc2cc(OCC(=O)O)c(Cl)c(Cl)c2C1=O` (stereo in doubt) [R(+)-Butylindazone], the “Plate 2 (% conversion)” value is reported as 33.18%.
In the case of `OC[C@H]1NC[C@@H](O)[C@@H]1O` [1,4-Dideoxy-1,4-imino-D-arabinitol], the “Plate 2 (% conversion)” value is reported as 35.43%.
With `Cn1c(=O)[nH]c2ncn(C)c2c1=O` [1,7-Dimethylxanthine] the “Plate 2 (% conversion)” value was 35.50%.
For `NCCCCCCCCCCN` [1,10-Diaminodecane], the “Plate 2 (% conversion)” value was 36.39%.
In the case of `CC(=O)C(C)=O` [2,3-Butanedione], the “Plate 2 (% conversion)” value is reported as 38.17%.
For `Nc1ccn([C@H]2CC[C@@H](CO)O2)c(=O)n1` [2,3-dideoxycytidine], the “Plate 2 (% conversion)” value was 37.68%.

Same assay, conditions: LOPAC compound at 20uM, plate 2; normalised to DMSO and 2,4-PDCA controls
For `COc1cc(C(O)C(=O)O)ccc1O` (racemic) [(±)-Vanillylmandelic acid], the “Plate 2 (% inhibition)” value was 9.80%.
With `COC(=O)C1=C(C)NC(C)=C(C(=O)O[C@@H]2CCCN(Cc3ccccc3)C2)[C@@H]1c1cccc([N+](=O)[O-])c1.Cl` (racemic) [Benidipine hydrochloride] the “Plate 2 (% inhibition)” value was 13.51%.
In the case of `CCCCCCCCCCCCCCC[C@H](O)[C@H](N)CO` (racemic) [DL-erythro-Dihydrosphingosine], the “Plate 2 (% inhibition)” value is reported as -80.23%.
`Nc1nc(Cl)nc2c1ncn2[C@@H]1O[C@H](COP(=O)(O)OP(=O)(O)OP(=O)(O)O)C(O)C1O` (stereo in doubt) was tested, and the “Plate 2 (% inhibition)” value was 71.75%.
`CCCCC1(C2CCCC2)Cc2cc(OCC(=O)O)c(Cl)c(Cl)c2C1=O` (stereo in doubt) [R(+)-Butylindazone] was tested, and the “Plate 2 (% inhibition)” value was 8.29%.
With `OC[C@H]1NC[C@@H](O)[C@@H]1O` [1,4-Dideoxy-1,4-imino-D-arabinitol] the “Plate 2 (% inhibition)” value was 1.56%.
For `Nc1ccn([C@H]2CC[C@@H](CO)O2)c(=O)n1` [2,3-dideoxycytidine], the “Plate 2 (% inhibition)” value was -5.15%.

Same assay, conditions: LOPAC compound at 20uM, plate 2; normalised to DMSO and 2,4-PDCA controls; read-out: Plate 2 (% inhibition)
For `Cn1c(=O)[nH]c2ncn(C)c2c1=O` [1,7-Dimethylxanthine], the inhibition at 20 µM was 1.36%.
For `NCCCCCCCCCCN` [1,10-Diaminodecane], the inhibition at 20 µM was -1.3%.
Molecule `CC(=O)C(C)=O` [2,3-Butanedione] has an inhibition at 20 µM of -6.62%.

Same assay, conditions: LOPAC compound at 20uM, plate 3; conversion of substrate peptide
`Br.CCCN1CCC2c3cc(O)ccc3CCC21` (racemic) [cis(+/-)-8-OH-PBZI hydrobromide] was tested, and the “Plate 3 (% conversion)” value was 33.20%.
For `CC(C)NCC(O)c1ccc(O)c(O)c1.Cl` (single isomer, unassigned; (-)) [(-)-Isoproterenol hydrochloride], the “Plate 3 (% conversion)” value was 6.03%.
In the case of `Cn1c(=O)c2[nH]c(-c3ccccc3)nc2n(C)c1=O` [1,3-Dimethyl-8-phenylxanthine], the “Plate 3 (% conversion)” value is reported as 35.64%.
With `Oc1cccc2c(O)nccc12` [1,5-Isoquinolinediol] the “Plate 3 (% conversion)” value was 40.11%.

Same assay, conditions: LOPAC compound at fixed 20 uM; plate 1, normalised to DMSO and 2,4-PDCA controls
In the case of `NC(Cc1ccc(Cl)cc1)C(=O)O` (racemic) [(±)-p-Chlorophenylalanine], the “Plate 1 (% inhibition)” value is reported as -1.40%.
In the case of `N[C@@H]1CONC1=O` (racemic) [DL-Cycloserine], the “Plate 1 (% inhibition)” value is reported as -17.16%.
For `Nc1ncnc2c1nc(Sc1ccc(Cl)cc1)n2C1OC2COP(=O)(O)OC2C1O` (stereo in doubt) [8-(4-Chlorophenylthio)-cAMP sodium], the “Plate 1 (% inhibition)” value was -2.91%.
With `CCCn1c(=O)c2[nH]c(-c3ccc(S(=O)(=O)O)cc3)nc2n(CCC)c1=O` [1,3-Dipropyl-8-p-sulfophenylxanthine] the “Plate 1 (% inhibition)” value was -2.36%.
`Nn1nnc2ccccc21` [1-Aminobenzotriazole] was tested, and the “Plate 1 (% inhibition)” value was -4.79%.
With `CC(=O)C(C)=NO` [2,3-Butanedione monoxime] the “Plate 1 (% inhibition)” value was -3.18%.

Same assay, conditions: LOPAC compound at fixed 20 uM; substrate conversion, plate 1
With `NC(Cc1ccc(Cl)cc1)C(=O)O` (racemic) [(±)-p-Chlorophenylalanine] the “Plate 1 (% conversion)” value was 36.34%.
For `N[C@@H]1CONC1=O` (racemic) [DL-Cycloserine], the “Plate 1 (% conversion)” value was 41.64%.
`Nc1ncnc2c1nc(Sc1ccc(Cl)cc1)n2C1OC2COP(=O)(O)OC2C1O` (stereo in doubt) [8-(4-Chlorophenylthio)-cAMP sodium] was tested, and the “Plate 1 (% conversion)” value was 36.85%.
For `CCCn1c(=O)c2[nH]c(-c3ccc(S(=O)(=O)O)cc3)nc2n(CCC)c1=O` [1,3-Dipropyl-8-p-sulfophenylxanthine], the “Plate 1 (% conversion)” value was 36.66%.
With `Nn1nnc2ccccc21` [1-Aminobenzotriazole] the “Plate 1 (% conversion)” value was 37.48%.
With `CC(=O)C(C)=NO` [2,3-Butanedione monoxime] the “Plate 1 (% conversion)” value was 36.94%.

Same assay, conditions: read-out: Inhibition at 20 µM [%]
`O.c1cnc2c(c1)ccc1cccnc12` [1,10-Phenanthroline monohydrate, reference compound] was tested, and the inhibition at 20 µM was 97.8%.

Same assay, conditions: read-out: Plate 2 (% inhibition)
Work on `COc1ccc2c(c1OC)C(=O)OC2C1c2cc3c(cc2CCN1C)OCO3` (single isomer, unassigned; (+)) [(+)-Hydrastine] yielded an inhibition at 20 µM of -6.94%.
Work on `OC[C@H]1NC[C@H](O)[C@@H](O)[C@@H]1O` [1-Deoxynojirimycin hydrochloride] yielded an inhibition at 20 µM of 2.25%.
